{
  "source": "patent US5620864A",
  "about": "“Acceptor for fucosyl transferase” (Health Research, Inc., priority 1992, dated 1997)",
  "key": {"[1]": {"tested_on": "α1,3-L-fucosyltransferase of the particulate fraction of ovarian tumor", "assay": "Assay of α1,3-fucosyltransferase with synthetic acceptors, ovarian tumor particulate fraction", "type": "biochemical, human", "settings": "for Relative Percent: 2'-methyl LacNAc = 100; for [14C] Fucose Incorporated (CPM): acceptor 3.0 mM, 37° C. 18 h", "procedure": "FIG. 2 The scheme for the preparation of the particulate and soluble fractions of human ovarian tumor.\n(§1) An incubation mixture contained 50 mM HEPES-NaOH, pH 7.5, 5 mM MnC12, 7 mM ATP, 3 mM NaN3, the acceptor 0.3 mM (for serum enzyme) or 3.0 mM (for tumor enzyme), 0.125 μCi of GDP-[U-^14 C] Fuc (Sp. Act. 216 mCi/mmol) and enzyme in a total volume of 0.10 ml; the control incubation mixture had everything except the acceptor. At the end of incubation at 37° C. for 18 h, the mixture was diluted with 1 ml water and passed through Dowex-1-C1 column (1 ml in a Pasteur pipet). The column was washed twice with 1 ml water; the breakthrough and wash, which contained the [^14 C] fucosylated neutral acceptor, were collected together in a scintillation vial and counted for radioactivity using the scintillation coctail 3a70 (Research Products International, Mount Prospects, Ill.) and Beckman LS9000. The Dowex column was then eluted successively with 3 ml each of 0.1M and 0.2M NaCl; these eluates which contained the [^14 C] fucosylated sulfated acceptors, were counted for radioactivity as before. Corrections were made by subtracting the radioactivity in the water and NaCl eluates of the control incubation mixture from the corresponding test fractions. The duplicate runs of samples gave almost identical values, the difference being <5%.\nThis finding is quite different from what we found with the soluble fraction, where α1,4-fucosyltransferase activity seems to be greater than α1,3-fucosyltransferase activity. […] The different nature of the above enzymes was made further clear, when sulfated derivatives of LacNAc was tested as acceptors."}, "[2]": {"target": "T1, serum α1,3-L-fucosyltransferase (Homo sapiens, UniProt P51993)", "T1 construct": "Sera were collected from healthy females and ovarian cancer patients; from tissue; host or cells: blood serum of ovarian cancer patients and healthy females", "T1 sequence (P51993 35-359 limits assumed)": "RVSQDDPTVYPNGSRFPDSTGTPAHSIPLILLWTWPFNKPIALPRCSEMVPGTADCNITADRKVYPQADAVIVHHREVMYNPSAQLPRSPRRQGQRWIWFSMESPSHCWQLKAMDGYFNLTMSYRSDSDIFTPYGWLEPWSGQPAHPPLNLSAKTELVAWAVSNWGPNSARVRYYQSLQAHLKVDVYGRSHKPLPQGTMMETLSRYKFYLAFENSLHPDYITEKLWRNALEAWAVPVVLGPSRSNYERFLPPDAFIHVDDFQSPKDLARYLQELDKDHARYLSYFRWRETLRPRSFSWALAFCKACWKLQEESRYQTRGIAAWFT", "assay": "Assay of α1,3-fucosyltransferase with various synthetic acceptors, ovarian cancer sera as enzyme source", "type": "biochemical", "settings": "for [14C] Fucose Incorporated (CPM): acceptor 0.3 mM, 37° C. 18 h", "procedure": "Sera were collected from healthy females and ovarian cancer patients admitted to Roswell Park Cancer Institute in Buffalo, N.Y., USA. Ovarian tumor tissues were obtained during surgical procedures from patients with ovarian cancer. Both sera and tissues were stored frozen at -70° C. until use.\nas §1\nThe activity of serum α1,3-fucosyltransferase was measured with the specific substrate 2'-methyl LacNAc and compared with the ability of several other synthetic substrates to act as an acceptor of fucose.\nWhen the structure of the acceptor 2'-methyl LacNAc was modified by replacing the methyl group with sulfate group in C-2', 3', 6' or 6 position and tested their ability to act as the acceptor of fucose, the following novel findings emerged. […] The β-benzyl glycoside of 3' sulfo LacNAc was quite active (168.4%) but less than the parent compound."}, "[3]": {"tested_on": "α1,3-L-fucosyltransferase of the soluble fraction of human ovarian tumor", "assay": "Assay of α1,3-fucosyltransferase with synthetic acceptors, partially purified enzyme of ovarian tumor soluble fraction", "type": "biochemical", "settings": "for [14C] Fucose Incorporated (CPM): acceptor 3.0 mM, 37° C. 18 h", "procedure": "as §1\nAs shown in the scheme set forth in FIG. 2, the α-L-fucosidase-free extract of the tissue (40 g), after concentration by 80% (NH4)2 SO4 precipitation was fractionated on bovine IgG glycopep-Sepharose in batches of 25 ml. After washing the column with the equilibration buffer, the bound enzyme was eluted with 1 M NaCl in the same buffer. The protein positive fractions were pooled and processed as shown in the scheme 2.0 ml of the above preparation was loaded on a Sephacryl S-200 column (Superfine:2.6 cm×88.0 cm) equilibrated at 4° C. with 50 mM Tris-HC1, pH 7.0 containing 0.15M NaCl and 0.1% Triton X-100 and eluted with the same buffer. Fractions of 3.0 ml were collected. The fucosyltransferase activity was located in the effluent fractions, by assaying first every 5th fraction and then obtaining the activity profile by assaying the alternate fractions in that range, using 2'-fucosyl LacNAc as the acceptor. […] Its elution position, which is slightly later than BSA, run separately on the same column, indicates its molecular weight as <67,000 daltons. […] The enzyme has been purified 66 fold over the soluble extract with a recovery of 6.2%. The enzyme at this stage lost its activity either kept frozen at -20° C. or left at 4° C. for more than a week. However, the enzyme at the end of the previous step was fairly stable for at least two months at 4° C. So this preparation of enzyme was used in acceptor ability comparison studies.\nWhen α1,3-fucosyltransferase activity of the partially purified enzyme preparation from the soluble portion of ovarian tumor was measured and compared with the activity of other acceptors, the following results were obtained. 2'-methyl LacNAc, LacNAc and Galβ1, 3GlcNAc were respectively 100.0%, 60.6% and 565.5% active, indicating the presence of both α1,3 and α1,4 fucosyltransferase activities in this preparation."}},
  "data": [
    {"smiles": "CO[C@H]1[C@H](O[C@H]2[C@H](O)[C@@H](NC(C)=O)[C@H](OCc3ccccc3)O[C@@H]2CO)O[C@H](CO)[C@H](O)[C@@H]1O", "note": "[2'-methyl LacNAcβ-O--Bn]", "values": [
      {"measurement": "Relative Percent", "setting": "[1]", "result": 149.2, "unit": "%"},
      {"measurement": "[14C] Fucose Incorporated (CPM)", "setting": "[1]", "result": 71989, "unit": "CPM"},
      {"measurement": "Relative Percent", "setting": "[2]; 2'-methyl LacNAc = 100", "result": 307.9, "unit": "%"},
      {"measurement": "[14C] Fucose Incorporated (CPM)", "setting": "[2]", "result": 5326, "unit": "CPM"},
      {"measurement": "Relative Percent", "setting": "[3]; 2'-methyl LacNAc = 100", "result": 113.2, "unit": "%"},
      {"measurement": "[14C] Fucose Incorporated (CPM)", "setting": "[3]", "result": 8367, "unit": "CPM"}
    ]},
    {"smiles": "CC(=O)N[C@H]1[C@H](OCc2ccccc2)O[C@H](CO)[C@@H](O)[C@@H]1O[C@@H]1O[C@H](CO)[C@H](O)[C@H](OS(=O)(=O)O)[C@H]1O", "note": "[3-SulfoGa1β1,3G1cNAcβ-O--Bn, Benzyl 3-0-(sodium β-D-Galactopyranosy 3-Sulfate)-2-acetamido-2-deoxy-β-D-Glucopyranoside]", "values": [
      {"measurement": "Relative Percent", "setting": "[1]", "result": 2.9, "unit": "%"},
      {"measurement": "[14C] Fucose Incorporated (CPM)", "setting": "[1]", "result": 1382, "unit": "CPM"},
      {"measurement": "Relative Percent", "setting": "[2]; 2'-methyl LacNAc = 100", "result": 0, "unit": "%"},
      {"measurement": "Relative Percent", "setting": "[2]; 2'-methyl LacNAc = 100, listed as 3-Sulfo Galβ1, 3GlcNAcβ-O-Bn", "result": "did not show any activity"},
      {"measurement": "[14C] Fucose Incorporated (CPM)", "setting": "[2]", "result": 0, "unit": "CPM"},
      {"measurement": "Relative Percent", "setting": "[3]; 2'-methyl LacNAc = 100", "result": 415.4, "unit": "%"},
      {"measurement": "Relative Percent", "setting": "[3]; 2'-methyl LacNAc = 100, listed as 3-sulfo Galβ1,3GlcNAcβ-O-Bn", "result": 415.4, "unit": "%"},
      {"measurement": "Relative Percent", "setting": "[3]; 2'-methyl LacNAc = 100, listed as β-benzyl glycoside of 3-sulfoGalβ1, 3 GlcNAc", "result": 415, "unit": "%"},
      {"measurement": "[14C] Fucose Incorporated (CPM)", "setting": "[3]", "result": 30704, "unit": "CPM"}
    ]},
    {"smiles": "CC(=O)N[C@H]1C(O)O[C@H](CO)[C@@H](O)[C@@H]1O[C@@H]1O[C@H](CO)[C@H](O)[C@H](O)[C@H]1O", "note": "(stereo partly drawn) [Ga1β1,3G1cNAc]", "values": [
      {"measurement": "Relative Percent", "setting": "[1]", "result": 34.2, "unit": "%"},
      {"measurement": "[14C] Fucose Incorporated (CPM)", "setting": "[1]", "result": 16511, "unit": "CPM"},
      {"measurement": "Relative Percent", "setting": "[2]; 2'-methyl LacNAc = 100", "result": 13.1, "unit": "%"},
      {"measurement": "[14C] Fucose Incorporated (CPM)", "setting": "[2]", "result": 227, "unit": "CPM"},
      {"measurement": "Relative Percent", "setting": "[3]; 2'-methyl LacNAc = 100", "result": 565.5, "unit": "%"},
      {"measurement": "Relative Percent", "setting": "[3]; 2'-methyl LacNAc = 100, listed as Galβ1, 3 GlcNAc", "result": 566, "unit": "%"},
      {"measurement": "Relative Percent", "setting": "[3]; 2'-methyl LacNAc = 100, listed as Galβ1, 3GlcNAc", "result": 565.5, "unit": "%"},
      {"measurement": "[14C] Fucose Incorporated (CPM)", "setting": "[3]", "result": 41802, "unit": "CPM"}
    ]}
  ]
}
